Values quoted from earlier work as cited in US20080286344A1, “Solid form” (priority 2007, published 2008).

Cn1c(=O)c2[nH]cnc2n(C)c1=O [theophylline]
Solubility in water, g of water for 1 g (1 g active in stated g of water): 100-1000 g water | Solubility in water (descriptive term) (water): slightly soluble
